The assay addresses T1, porcine pancreatic elastase (PPE) (Sus scrofa, UniProt P00772).
T1 construct: gene CELA1; commercial native enzyme from porcine pancreas (Sigma Aldrich); PDB 1QGF printed for the docking model of PPE
The assay is described as follows: spectrophotometric, p-nitroaniline release at […] nm. Type of assay: biochemical. Conditions: read-out: IC50 Values / EI (μg/mL) (converted).

These results are taken from article PMC12473510, “Multidisciplinary Bioanalytical Approach to Assess the Anti-Aging Properties of Flower Petals—A Promising Sustainable Cosmetic Ingredient” (Plants, 2025).

T1 sequence (P00772 27-266): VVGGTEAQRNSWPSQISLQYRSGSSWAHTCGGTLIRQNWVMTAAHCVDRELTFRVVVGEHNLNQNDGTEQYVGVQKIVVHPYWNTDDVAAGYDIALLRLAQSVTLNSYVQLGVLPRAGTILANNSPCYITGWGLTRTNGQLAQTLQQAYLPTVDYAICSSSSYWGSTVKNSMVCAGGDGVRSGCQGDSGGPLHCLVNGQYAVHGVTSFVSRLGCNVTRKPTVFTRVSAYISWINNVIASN

`O=C(O[C@@H]1Cc2c(O)cc(O)cc2O[C@@H]1c1cc(O)c(O)c(O)c1)c1cc(O)c(O)c(O)c1` [epigallocatechin gallate]: the IC50 was 759 µM.
